Data as given in ChEMBL document CHEMBL1121977, “alpha 2 adrenoceptors: classification, localization, mechanisms, and targets for drugs” (J Med Chem, 1982).

biological target: T1, Adrenergic receptor alpha-2 (Rattus norvegicus, UniProt P22086+P19328+P22909); experiment: Displacement of [3H]clonidine from Alpha-2 adrenergic receptor of rat brain membranes; assay type: cell membranes, Membrane
T1 sequence (P22086 whole entry): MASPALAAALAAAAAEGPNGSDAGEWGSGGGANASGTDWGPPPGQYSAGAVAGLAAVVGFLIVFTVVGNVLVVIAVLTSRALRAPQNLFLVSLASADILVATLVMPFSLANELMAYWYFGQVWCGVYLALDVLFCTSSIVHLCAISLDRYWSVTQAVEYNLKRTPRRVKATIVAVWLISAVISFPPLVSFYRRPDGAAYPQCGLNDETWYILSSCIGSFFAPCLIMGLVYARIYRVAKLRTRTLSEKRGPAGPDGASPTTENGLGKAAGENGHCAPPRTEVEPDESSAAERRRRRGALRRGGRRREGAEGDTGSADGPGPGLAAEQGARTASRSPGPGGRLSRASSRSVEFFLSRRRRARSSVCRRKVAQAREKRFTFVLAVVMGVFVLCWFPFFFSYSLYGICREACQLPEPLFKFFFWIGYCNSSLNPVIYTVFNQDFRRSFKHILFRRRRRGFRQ
T1 sequence (P19328 whole entry): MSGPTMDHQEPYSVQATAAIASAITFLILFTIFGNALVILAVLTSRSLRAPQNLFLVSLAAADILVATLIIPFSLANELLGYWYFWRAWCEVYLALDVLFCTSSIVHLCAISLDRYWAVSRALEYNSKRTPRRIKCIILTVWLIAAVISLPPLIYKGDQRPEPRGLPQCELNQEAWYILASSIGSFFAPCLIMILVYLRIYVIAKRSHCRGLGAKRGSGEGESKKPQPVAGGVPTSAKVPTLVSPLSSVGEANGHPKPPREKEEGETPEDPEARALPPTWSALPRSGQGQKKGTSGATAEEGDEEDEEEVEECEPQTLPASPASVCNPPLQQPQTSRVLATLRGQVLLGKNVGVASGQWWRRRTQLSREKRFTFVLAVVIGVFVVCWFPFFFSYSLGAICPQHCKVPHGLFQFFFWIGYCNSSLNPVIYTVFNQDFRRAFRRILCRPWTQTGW
T1 sequence (P22909 whole entry): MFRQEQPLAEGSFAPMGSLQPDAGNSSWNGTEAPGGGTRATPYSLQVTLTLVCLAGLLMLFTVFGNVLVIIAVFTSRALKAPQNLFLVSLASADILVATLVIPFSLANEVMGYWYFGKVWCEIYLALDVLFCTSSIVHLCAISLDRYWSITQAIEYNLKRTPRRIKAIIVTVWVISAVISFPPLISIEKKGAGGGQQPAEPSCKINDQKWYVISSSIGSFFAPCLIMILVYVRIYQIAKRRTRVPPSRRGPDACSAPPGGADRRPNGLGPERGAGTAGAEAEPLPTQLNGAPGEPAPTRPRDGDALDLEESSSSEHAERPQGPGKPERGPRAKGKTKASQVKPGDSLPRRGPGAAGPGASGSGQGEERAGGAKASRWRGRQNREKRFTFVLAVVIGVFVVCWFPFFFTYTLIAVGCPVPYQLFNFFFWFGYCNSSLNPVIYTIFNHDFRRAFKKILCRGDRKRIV

Row | SMILES | Ki [nM]
1 | COc1cccc(OC)c1OCCNCC1COc2ccccc2O1 (centres undefined) | 200
2 | c1cc2c(c(NC3=NCCN3)c1)CCCC2 [TRAMAZOLINE] | 4.2
3 | C[C@H](N)[C@H](O)c1ccc(O)c(O)c1 [LEVONORDEFRIN] | 7.7
4 | c1ccc(CC2=NCCN2)cc1 [TOLAZOLINE] | 180
